Data as given in patent publication US7910568B2, “Derivatives of 4- or 5-aminosalicylic acid” (Antibe Therapeutics Inc., priority 2005, dated 2011).

Experiments:
[1] = H2S generation in buffer, liver homogenate and liver homogenate with PAG, sulfide sensitive electrode; format: in vitro ADME, rat; details: 1 mM compound, FIG. 21; for Effect of PAG (DL-propargylglycine) on H2S generation in liver homogenate: PAG 2 mM, inhibitor of cystathionine γ-lyase; for H2S release in buffer: potassium phosphate buffer pH 7.4, 37° C.
[2] = Viability of HT-29 human colon cancer cells, MTT assay; format: cell-based; details: HT-29 colon cancer cells, 72 h exposure, HT-29, MTT, read-out: Cell viability rate as a percent of the vehicle (DMSO)-treated cells
Description: HT-29 cells were grown in culture using standard methods. The cells were exposed to vehicle (DMSO), mesalamine or Compound XXXV. Concentrations ranging from 0.1 to 10 μM were tested, with each concentration tested in 6 wells. At the end of 72 h of exposure to the test drugs, cell viability was measured using the MTT [3-(4,5-dimethylthiaxol-2-yl)-2,5-diphenyltetrazolium bromide] assay (Carmichael et al. (1978) Cancer Res. 47, 936-942), incorporated herein by reference.

[3] = system: visceral pain perception in response to colorectal distension; assay: Rat model of visceral pain perception, colorectal distension, abdominal withdrawal reflex score; format: in vivo; details: for Pain perception score after glibenclamide pretreatment: glibenclamide 10 mg/kg i.p. 30 min before
Description: A rat model of visceral pain perception, a pre-clinical model of irritable bowel syndrome, was used in the following example. Rats (male, Wistar, 200-250 g, obtained from Charles River, Monza, Italy), were housed in plastic cages and maintained under controlled conditions with 12-hours light/dark cycle with lights on at 7.00 AM. Tap water and standard laboratory chow were freely available. Before experiments, rats were individually trained by spending 2-3 hours per day in a plexiglass cage for 2-3 days. It allowed them to adjust to a movement-restriction environment. Food was withheld for 12 hours before colorectal distension (CRD) recording were performed. Experiments were performed in awake rats and were conducted in a blind manner in that the observer was not aware of the identity of drug administered to each animal.
In the testing day, rats were sedated with ether inhalation and a 2 cm long latex balloon was inserted intrarectally 2 cm from the anal verge and fixed at the base of the tail. The balloon was connected via a double-barreled cannula to a pressure transducer to continuously monitoring the rectal pressure by a computer (PowerLab PC, A.D. Instruments, Milford, Mass., USA) and to a syringe for inflation/deflation of the balloon. The rats were then housed in a small cage (20×8×8 cm) on an elevated Plexiglas™ platform and allowed to wake up and adapt for 1 hour. After recovery from sedation, animals underwent the CRD procedure and behavioral responses were tested. The night before the experiments, the balloons were inflated and left overnight so the latex stretched and the balloons became compliant.
CRD of 20 seconds, performed every 5 minutes, was applied in increment of 0.4 ml starting from 0.4 ml up to 1.6 ml water. To achieve an accurate measurement of the colonic parameters and perception, the distensions were repeated twice for each intensity and data for each animal were averaged for analysis. Each animal underwent a double set of CRD. Twenty minutes after the first sequence of CRD (0.4 mL-1.6 ml water), drugs were administered intraperitoneally (i.p.) and a second set of CRD was performed. Behavioral responses during the first and the second set of CRD were assessed and compared.
Behavioral response to CRD was assessed by measuring the abdominal withdrawal reflex (AWR) using a semiquantitative score (1).
The effects of mesalamine and Compound XXXV on colonic compliance and sensitivity were determined using a total of 8 fasting rats. To investigate whether the administration of mesalamine and Compound XXXV could revert pain induced by CRD, after the first sequence of CRD, […], after which a second set of CRD was repeated.
All data are presented as the mean±SEM, with sample sizes of 4 rats/group; statistical comparison of paired data was performed by the Wilcoxon signed rank test. An associated probability (p value) of less that 5% was considered significant.

[4] = system: leukocyte adherence to the vascular endothelium; assay: Aspirin-induced leukocyte adherence to the vascular endothelium, intravital microscopy of mesenteric venules; format: in vivo, rat
Description: Leukocyte adherence was studied using intravital microscopy, as described in detail previously (Wallace et al., (1993) Am. J. Physiol. 265: 993-998, incorporated hereto by reference). Rats were anesthetized with pentobarbital sodium (60 mg/kg i.p.) and cautery incisions were made along the abdominal region. A tracheotomy was performed to facilitate breathing. The rats were placed in a supine position, and a segment of the mesentery was exteriorized through the abdominal incision. The mesentery was carefully placed over an optically clear viewing pedestal that allowed for trans-illumination of a 2-cm^2 segment of tissue. All exposed tissue was covered with saline-soaked gauze to minimize dehydration. The temperature of the pedestal was kept at 37° C. and the mesentery was superfused with warmed bicarbonate-buffered saline (pH 7.4). An intravital microscope (Nikon L25/0.35) and a ×10 eyepiece were used to observe the mesenteric microcirculation. Post-capillary venules with diameters ranging from 20 to 40 μm were selected for the study. A video camera mounted on the microscope (Panasonic™ digital 5000) projected the image onto a monitor, and the images were recorded for playback analysis using a videocassette recorder. Images of the mesenteric microcirculation were recorded 5 minutes prior to aspirin administration (baseline), at the time of aspirin administration (time 0-5) and every 15 minutes for 60 minutes. Leukocyte adherence was blindly quantified from videotaped images of the vessels made over 5-min periods as the number of leukocytes that remained stationary along the vessel wall for 30 s or more (expressed per 100 μm venule length). Groups of rats (at least 5 in each) were pretreated with Compound XXXV (130 mg/kg), Compound XXVII (100 mg/kg), mesalamine (50 mg/kg), or vehicle 60 min prior to aspirin (or vehicle) administration. These drugs were given intragastrically. In some experiments, rats were treated with glibenclamide (10 mg/kg i.p.) or vehicle 30 min prior to administration of these compounds.

[5] = after patients have taken the usual doses; Dig. Dis. Sci. 1989; 34: 573-578; cited from earlier work
TNBS-induced colitis = TNBS-induced colitis in mice, disease activity score; format: in vivo; details: Compound XXVII 100 mg/kg vs mesalamine 50 mg/kg, 4-HTB 50 mg/kg and their mixture; FIG. 5
Description: (§1) A standard experimental animal model of colitis induced by intracolonic administration of 2,4,6-trinitrobenzene sulfonic acid (TNBS) to mice is used in the following example. A detailed description of this model has been published (Santucci et al. (2003) Gastroenterology 124:1381-94) and is incorporated herein by reference. Briefly, 6-8 week old Balb/c mice were given TNBS intracolonically at a dose of 1.5 mg in 0.1 mL of 30% ethanol. The mice were randomized to the various treatment groups (n=6 per group). Beginning one hour later and continuing every 12 h for 5 days, the mice were treated orally with vehicle (1% carboxymethylcellulose (CMC)), 5-ASA (mesalamine) (25, 50 or 75 mg/kg) or with equimolar doses of 2-hydroxy-5-amino-benzoic acid 4-(thioxo-5H-[1,2]dithiol-3-yl)-phenyl ester hydrochloride (Compound XXXV) (130 mg/kg), or with […] (100 mg/kg), 50% (66 mg/kg) and 25% (33 mg/kg) of that dose. The mice were evaluated (blindly) on the final day of the study for the presence of diarrhea and fecal occult blood, and their body weights were measured. […] After sacrifice, a sample of the colon was excised for measurement of myeloperoxidase (MPO) activity, as a marker of granulocyte infiltration. All results were compared to those obtained with healthy mice as well.

[6] = system: myeloperoxidase (MPO) activity; assay: TNBS-induced colitis in mice, colonic myeloperoxidase (MPO) activity as marker of granulocyte infiltration; format: in vivo; details: Compound XXVII 100 mg/kg; FIG. 6
Description: as §1

thoracic aorta rings = assay: Vasorelaxant effect on phenylephrine-precontracted thoracic aorta rings; design: species or system CD-1 mice; details: cumulative 10 nM-3 mM on PE (1 μM) precontracted rings with endothelium; FIG. 22
Description: CD-1 mice were sacrificed and thoracic aorta was rapidly dissected and cleaned from fat and connective tissue. […] Changes in isometric tension were recorded with PowerLab™ data acquisition system (Ugo Basile, Italy). […] Rings were initially stretched until a resting tension of 1.5 g was reached and allowed to equilibrate for at least 40 minutes during which tension was adjusted, when necessary, to 1.5 g and bathing solution was periodically changed.
Vehicle represents buffer but no compound. Curves to tested compounds were constructed in presence of endothelium.
Data obtained are shown in FIG. 22 and are expressed as mean±SEM. The level of statistical significance was determined by 2-way analysis of variance (ANOVA) followed by Bonferroni's test for multiple comparison, using the GraphPad™ software.

[7] = 0.8 mL colorectal distention, 100 mg/kg, FIG. 17
[8] = equimolar doses: mesalamine 50 mg/kg, Compound XXXV 130 mg/kg, ADT-OH 80 mg/kg, Compound XXVII 100 mg/kg, 4-HTB 50 mg/kg, vs vehicle

In the case of `N[C@@H](CS)C(=O)O` [L-cysteine, reference compound], the “Effect of PAG (DL-propargylglycine) on H2S generation in liver homogenate” value [1] is reported as “markedly inhibited” and the “H2S release in buffer” value [1] is reported as “did not release significant H2S”.

Compound `Nc1ccc(O)c(C(=O)O)c1` [Mesalamine, 5-aminosalicylic acid] has a viability at 72 h, 0.1 µM ([2]; 0.1 μM) of 104 ± 2.5%, a viability at 72 h, 1 µM ([2]; 1 μM) of 101 ± 3.5% and a viability at 72 h, 10 µM ([2]; 10 μM) of 91.1 ± 3.2%. For the same compound, the “Pain perception score after glibenclamide pretreatment” value [3, 7] was “did not affect the pain perception”, the Pain perception score [3, 7] was “no significant effect” and the Pain perception score [3, 8] was “Only Compound XXXV and Compound XXVII significantly reduced pain perception”. The “Aspirin-induced leukocyte adherence after glibenclamide pretreatment” value ([4]; glibenclamide 10 mg/kg i.p. 30 min prior to the compound, FIG. 19) was “no effect” and the “Concentration in the colonic lumen” value [5] was “up to 5 mM”.

With `NC(=S)c1ccc(OC(=O)c2cc(N)ccc2O)cc1` [Compound XXVII, 5-Amino-2-hydroxy-benzoic acid 4-thiocarbamoyl-phenyl ester] the “Disease Activity Index” value (TNBS-induced colitis) was “almost three times as effective as either mesalamine alone, 4-HTB alone or a mixture of mesalamine and 4-HTB”, the “MPO activity (granulocyte infiltration)” value [6] was “significantly reduced inflammation” and the “Pain perception score after glibenclamide pretreatment” value [3, 7] was “reversed by pretreatment with glibenclamide”. For the same compound, the Pain perception score [3, 7] was “significantly reduced the pain perception”, the Pain perception score [3, 8] was “significantly reduced pain perception” and the “Aspirin-induced leukocyte adherence, final time period” value ([4]; minutes 60-65, XXXV 130 mg/kg, XXVII 100 mg/kg intragastric, FIG. 20) was “suppress aspirin-induced leukocyte adherence”. The “Aspirin-induced leukocyte adherence, final time period, after glibenclamide pretreatment” value ([4]; minutes 60-65, glibenclamide 10 mg/kg i.p., FIG. 20) was “reverse this inhibitor effect”, the “Effect of PAG (DL-propargylglycine) on H2S generation in liver homogenate” value [1] was “lack of effect” and the “H2S release in buffer” value [1] was “release H2S spontaneously (in buffer)”. The “H2S release in liver homogenate compared with buffer” value ([1]; rat liver homogenate 10% (wt/vol)) was “greater when in the presence of tissue”.

With `CC(=N)S` [thioacetamide] the “Vasorelaxant effect (% relaxation), concentration dependent, compared to vehicle” value (thoracic aorta rings) was “significant vasorelaxant effects”.

For `Oc1ccc(-c2cc(=S)ss2)cc1` [ADT-OH, 5-p-hydroxyphenyl-1,2-dithione-3-thione, reference compound], the Pain perception score [3, 8] was “Only Compound XXXV and Compound XXVII significantly reduced pain perception” and the “H2S release in buffer” value [1] was “did not release significant H2S”.

In the case of `COc1ccc(Cl)cc1C(=O)NCCc1ccc(S(=O)(=O)NC(=O)NC2CCCCC2)cc1` [Glibenclamide, glibenclamide, reference compound], the “Leukocyte adherence without aspirin” value ([4]; glibenclamide alone, 10 mg/kg i.p.) is reported as “did not affect leukocyte adherence” and the Aspirin-induced leukocyte adherence ([4]; intragastric pretreatment 60 min prior to aspirin (XXXV 130 mg/kg, mesalamine 50 mg/kg), glibenclamide 10 mg/kg i.p., FIG. 19) is reported as “did not affect the magnitude of aspirin-induced leukocyte adherence”.

For `NC(=S)c1ccc(O)cc1` [Compound 4-HTB, 4-hydroxythiobenzamide, reference compound], the Pain perception score [3, 8] was “Only Compound XXXV and Compound XXVII significantly reduced pain perception”, the “H2S release in buffer” value [1] was “did not release significant H2S” and the “Vasorelaxant effect (% relaxation), concentration dependent, compared to vehicle” value (thoracic aorta rings) was “significant vasorelaxant effects”.
